{"source": "paper PMC12566511", "about": "“The Evaluation of (1R,4R,7R,10R)-α,α′,α″,α‴-Tetramethyl-1,4,7,10-tetraazacyclododecane-1,4,7,10-tetraacetic Acid (DOTMA) as a Chelator for Zirconium-89” (Molecules, 2025)", "key": {"[1]": {"assay": "In vitro serum stability study", "format": "in vitro ADME, human", "settings": "for % Intact of [^89Zr]Zr-DOTMA (n = 3) Radio-ITLC / % Intact of [^89Zr]Zr-DOTMA (n = 3) Radio-SE-HPLC: human serum, 37 °C", "experimental": "The in vitro serum stability was determined by adding 20 μL of [^89Zr]Zr-DOTMA (113–124 μCi, 4.2–4.6 MBq) to 500 μL of human serum. The solutions (n = 3) were incubated at 37 °C for 7 days and were analyzed daily for 1 week by radio-TLC using Varian ITLC-SA strips, 0.1 M EDTA (pH 5) as the mobile phase, and gamma counting. Samples were also analyzed at 1, 3, 5, and 7 days via size exclusion chromatography (SEC) using a Superdex 200 10/300 GL column (GE Healthcare Life Sciences, Piscataway, NJ, USA) and phosphate buffered saline (PBS) as an eluent with a flow rate of 0.5 mL/min. Fractions (0.5 mL per tube) were collected, and the activity in each fraction was measured in a gamma counter. The percent intact radiopharmaceutical was determined by […] in the chromatogram and multiplying by a factor of 100%."}, "[2]": {"assay": "In vitro metal competition study", "format": "physicochemical", "settings": "for % Intact of [^89Zr]Zr-Complex (n = 3): PBS pH 7.4, 37 °C, radio-ITLC", "experimental": "To separate solutions of metal cations (iron(III) chloride, cobalt(II) chloride, zinc(II) chloride, copper(II) chloride, magnesium(II) chloride, gallium(III) nitrate, and gadolinium(III) chloride) (1.0 mM, 200 μL), [^89Zr]Zr-DOTMA complex (0.1 mM, 20 μL, 110−119 μCi, 4.1–4.4 MBq) in PBS (pH 7.4) was added. The resulting solutions (n = 3) were incubated at 37 °C for 7 days in a thermomixer. Dissociation of ^89Zr from [^89Zr]Zr-DOTMA complex was monitored by radio-TLC at 0, 1, 3, 5, and 7 days using radio-TLC, Varian ITLC-SA strips, 50 mM EDTA (pH 5) as the mobile phase, and gamma counting. All studies were performed in triplicate."}}, "note": "“Also recorded” adds a separate entry of the source.", "data": [{"smiles": "CC(C(=O)[O-])N1CCN(C(C)C(=O)[O-])CCN(C(C)C(=O)[O-])CCN(C(C)C(=O)[O-])CC1.[89Zr+4]", "note": "(centres unmarked) [[^89Zr]Zr-DOTMA]", "values": [{"measurement": "% Intact of [^89Zr]Zr-DOTMA (n = 3) Radio-ITLC", "setting": "[1]; 0 h", "value": "≥99.99", "unit": "%"}, {"measurement": "% Intact of [^89Zr]Zr-DOTMA (n = 3) Radio-SE-HPLC", "setting": "[1]; 0 h", "value": "≥99.99", "unit": "%"}, {"measurement": "% Intact of [^89Zr]Zr-DOTMA (n = 3) Radio-ITLC", "setting": "[1]; 1 d", "value": "≥99.99", "unit": "%"}, {"measurement": "% Intact of [^89Zr]Zr-DOTMA (n = 3) Radio-SE-HPLC", "setting": "[1]; 1 d", "value": "≥99.99", "unit": "%"}, {"measurement": "% Intact of [^89Zr]Zr-DOTMA (n = 3) Radio-ITLC", "setting": "[1]; 3 d", "value": "≥99.99", "unit": "%"}, {"measurement": "% Intact of [^89Zr]Zr-DOTMA (n = 3) Radio-SE-HPLC", "setting": "[1]; 3 d", "value": "≥99.99", "unit": "%"}, {"measurement": "% Intact of [^89Zr]Zr-DOTMA (n = 3) Radio-ITLC", "setting": "[1]; 5 d", "value": "≥99.99", "unit": "%"}, {"measurement": "% Intact of [^89Zr]Zr-DOTMA (n = 3) Radio-SE-HPLC", "setting": "[1]; 5 d", "value": "≥99.99", "unit": "%"}, {"measurement": "% Intact of [^89Zr]Zr-DOTMA (n = 3) Radio-ITLC", "setting": "[1]; 7 d", "value": "≥99.99", "unit": "%"}, {"measurement": "% Intact of [^89Zr]Zr-DOTMA (n = 3) Radio-SE-HPLC", "setting": "[1]; 7 d", "value": "99.9 ± 0.1", "unit": "%"}, {"measurement": "association of ^89Zr with serum proteins (in words)", "setting": "[1]; incubation in human serum, seven-day time course", "value": "not associated with the serum proteins"}, {"measurement": "% Intact of [^89Zr]Zr-Complex (n = 3)", "setting": "[2]; Co^2+, 0 h", "value": "≥99.99", "unit": "%"}, {"measurement": "% Intact of [^89Zr]Zr-Complex (n = 3)", "setting": "[2]; Co^2+, 1 d", "value": "≥99.99", "unit": "%"}, {"measurement": "% Intact of [^89Zr]Zr-Complex (n = 3)", "setting": "[2]; Co^2+, 3 d", "value": "≥99.99", "unit": "%"}, {"measurement": "% Intact of [^89Zr]Zr-Complex (n = 3)", "setting": "[2]; Co^2+, 5 d", "value": "≥99.99", "unit": "%"}, {"measurement": "% Intact of [^89Zr]Zr-Complex (n = 3)", "setting": "[2]; Co^2+, 7 d", "value": "≥99.99", "unit": "%"}, {"measurement": "% Intact of [^89Zr]Zr-Complex (n = 3)", "setting": "[2]; Cu^2+, 0 h", "value": "≥99.99", "unit": "%"}, {"measurement": "% Intact of [^89Zr]Zr-Complex (n = 3)", "setting": "[2]; Cu^2+, 1 d", "value": "≥99.99", "unit": "%"}, {"measurement": "% Intact of [^89Zr]Zr-Complex (n = 3)", "setting": "[2]; Cu^2+, 3 d", "value": "≥99.99", "unit": "%"}, {"measurement": "% Intact of [^89Zr]Zr-Complex (n = 3)", "setting": "[2]; Cu^2+, 5 d", "value": "≥99.99", "unit": "%"}, {"measurement": "% Intact of [^89Zr]Zr-Complex (n = 3)", "setting": "[2]; Cu^2+, 7 d", "value": "≥99.99", "unit": "%"}, {"measurement": "% Intact of [^89Zr]Zr-Complex (n = 3)", "setting": "[2]; Fe^3+, 0 h", "value": "≥99.99", "unit": "%"}, {"measurement": "% Intact of [^89Zr]Zr-Complex (n = 3)", "setting": "[2]; Fe^3+, 1 d", "value": "≥99.99", "unit": "%"}, {"measurement": "% Intact of [^89Zr]Zr-Complex (n = 3)", "setting": "[2]; Fe^3+, 3 d", "value": "≥99.99", "unit": "%"}, {"measurement": "% Intact of [^89Zr]Zr-Complex (n = 3)", "setting": "[2]; Fe^3+, 5 d", "value": "≥99.99", "unit": "%"}, {"measurement": "% Intact of [^89Zr]Zr-Complex (n = 3)", "setting": "[2]; Fe^3+, 7 d", "value": "≥99.99", "unit": "%"}, {"measurement": "demetallation when challenged with high concentrations of metal ions (in words)", "setting": "[2]; Fe^3+, Co^2+, Zn^2+, Cu^2+, Mg^2+, Ga^3+ or Gd^3+ ions, seven-day time course", "value": "inert; also recorded: no demetallation"}, {"measurement": "% Intact of [^89Zr]Zr-Complex (n = 3)", "setting": "[2]; Ga^3+, 0 h", "value": "≥99.99", "unit": "%"}, {"measurement": "% Intact of [^89Zr]Zr-Complex (n = 3)", "setting": "[2]; Ga^3+, 1 d", "value": "≥99.99", "unit": "%"}, {"measurement": "% Intact of [^89Zr]Zr-Complex (n = 3)", "setting": "[2]; Ga^3+, 3 d", "value": "≥99.99", "unit": "%"}, {"measurement": "% Intact of [^89Zr]Zr-Complex (n = 3)", "setting": "[2]; Ga^3+, 5 d", "value": "≥99.99", "unit": "%"}, {"measurement": "% Intact of [^89Zr]Zr-Complex (n = 3)", "setting": "[2]; Ga^3+, 7 d", "value": "≥99.99", "unit": "%"}, {"measurement": "% Intact of [^89Zr]Zr-Complex (n = 3)", "setting": "[2]; Gd^3+, 0 h", "value": "≥99.99", "unit": "%"}, {"measurement": "% Intact of [^89Zr]Zr-Complex (n = 3)", "setting": "[2]; Gd^3+, 1 d", "value": "≥99.99", "unit": "%"}, {"measurement": "% Intact of [^89Zr]Zr-Complex (n = 3)", "setting": "[2]; Gd^3+, 3 d", "value": "≥99.99", "unit": "%"}, {"measurement": "% Intact of [^89Zr]Zr-Complex (n = 3)", "setting": "[2]; Gd^3+, 5 d", "value": "≥99.99", "unit": "%"}, {"measurement": "% Intact of [^89Zr]Zr-Complex (n = 3)", "setting": "[2]; Gd^3+, 7 d", "value": "≥99.99", "unit": "%"}, {"measurement": "% Intact of [^89Zr]Zr-Complex (n = 3)", "setting": "[2]; Mg^2+, 0 h", "value": "≥99.99", "unit": "%"}, {"measurement": "% Intact of [^89Zr]Zr-Complex (n = 3)", "setting": "[2]; Mg^2+, 1 d", "value": "≥99.99", "unit": "%"}, {"measurement": "% Intact of [^89Zr]Zr-Complex (n = 3)", "setting": "[2]; Mg^2+, 3 d", "value": "≥99.99", "unit": "%"}, {"measurement": "% Intact of [^89Zr]Zr-Complex (n = 3)", "setting": "[2]; Mg^2+, 5 d", "value": "≥99.99", "unit": "%"}, {"measurement": "% Intact of [^89Zr]Zr-Complex (n = 3)", "setting": "[2]; Mg^2+, 7 d", "value": "≥99.99", "unit": "%"}, {"measurement": "% Intact of [^89Zr]Zr-Complex (n = 3)", "setting": "[2]; Zn^2+, 0 h", "value": "≥99.99", "unit": "%"}, {"measurement": "% Intact of [^89Zr]Zr-Complex (n = 3)", "setting": "[2]; Zn^2+, 1 d", "value": "≥99.99", "unit": "%"}, {"measurement": "% Intact of [^89Zr]Zr-Complex (n = 3)", "setting": "[2]; Zn^2+, 3 d", "value": "≥99.99", "unit": "%"}, {"measurement": "% Intact of [^89Zr]Zr-Complex (n = 3)", "setting": "[2]; Zn^2+, 5 d", "value": "≥99.99", "unit": "%"}, {"measurement": "% Intact of [^89Zr]Zr-Complex (n = 3)", "setting": "[2]; Zn^2+, 7 d", "value": "≥99.99", "unit": "%"}]}]}
